Read-outs that look alike come from different tables or passages of the source. Ends that are not written are not given here.
How the values were obtained:
[1] = in vitro; conditions: 25% serum
Description: The stability of Lynronne-1, Lynronne-2 and Lynronne-3 in the presence of serum was investigated by monitoring the concentrations of the remaining soluble peptides by reverse phase high-performance liquid chromatography (RP-HPLC), as described previously by Nguyen and colleagues.[26] Degradation of Lynronne-1, Lynronne-2 and Lynronne-3 in the presence of trypsin was adapted from a previously described method.[46] Briefly, trypsin (5 µl of 0.5 ng/ml) and 37.5 µl trypsin activation buffer (50 mM Tris, 2 mM CaCl2, pH 7.8-8) was added to 7.5 µl of 5 mg/ml Lynronne-1, Lynronne-2 and Lynronne-3 and incubated at 37 °C for different time points (0, 1, 3, and 24 h). An aliquot from each reaction mixture at 0 h was prepared to allow matrix-assisted laser desorption/ionization time-of-flight (MALDI-TOF) mass spectrometric verification of the synthetic peptides prior to incubation. Trypsin action buffer (5 µl) and peptides without trypsin was used as negative control. After the various incubation times, the reaction mixtures were acidified by addition of an equal volume (50 µl) of 10% (v/v) trifluroacetic acid (TFA) to stop further enzyme activity. Lynronne-1, Lynronne-2 and Lynronne-3 degradation products were evaporated to dryness and reconstituted in acetonitrile/water/TFA (40/59.5/0.5%, v/v/v). Samples (1 µl) were carefully placed onto a stainless steel (MALDI) target, covered with 1 µl of matrix (53 mM a-cyano-4-hydroxycinnamic acid in acetonitrile/water/TFA, 70/29.97/0.03%, v/v/v) solution before analysis by mass spectrometry.

[2] = system: E. coli K12; experiment: SPOT peptide library screen (resazurin fluorescence); assay type: cell-based, Escherichia coli; design: unit not given here; conditions: 75% reduction of fluorescence vs untreated controls; active IC75≤0.25, semi-active 0.25<IC75≤0.50, inactive IC75>0.5
Description: (§1) The peptides in the created peptide library were synthesized based on the SPOT technique and pure peptides (≥95% purity) were synthesized on resin using solid phase Fmoc peptide chemistry.[16] The 135 peptides in the peptide library were screened for antimicrobial activity using both luminescent (Pseudomonas aeruginosa strain H1001)[34] and non-luminescent (epidemic methicillin resistant S. aureus EMRSA-15, Sal. typhimurium and E. coli K12) bacterial strains. Activity against non-luminescent bacteria strains was assessed by fluorescence readings (excitation/emission spectra of 560/590 nm) after the addition of resazurin dye (100 µm final concentration). The results from the screen were analysed using the MATLAB extension Gait-CAD as previously described.[35] Concentration values with a 75% reduction of luminescence or fluorescence (IC75) in relation to untreated controls were computed.

[3] = system: MRSA strains; experiment: Time kill kinetics; assay type: cell-based, Staphylococcus aureus; conditions: 3× MIC, MHB
Description: Assessment of the bactericidal activity of peptides and comparator antibiotics was performed as previously described[39] using exponential-phase cultures of pathogens grown in MHB ([…]). Peptides were added at concentrations 3 times their MIC values. Experiments were performed in quadruplicates, and CFU/ml was calculated at different time points after over overnight incubation.

[4] = system: S. aureus; experiment: microbe, parasite or virus in culture; conditions: for MIC: strain RN4220, Sensitive, cation adjusted MHB, 18–24 h
Description: (§2) Peptides dissolved in sterile distilled water and comparator antibiotics dissolved in the appropriate solvents[38] were added to sterile U-bottom polypropylene 96-well microplates at desired concentrations.

[5] = system: Sal. typhimurium SL1344; experiment: microbe, parasite or virus in culture
Description: as §2

[6] = system: Ent. faecalis JH2-2; experiment: microbe, parasite or virus in culture
Description: as §2

[7] = system: List. monocytogenes NCTC 11994; experiment: microbe, parasite or virus in culture; conditions: NCTC 11994
Description: as §2

[8] = system: P. aeruginosa H1001; experiment: SPOT peptide library screen (luminescence); assay type: cell-based, Pseudomonas aeruginosa; design: unit not given here; conditions: 75% reduction of luminescence vs untreated controls; active IC75≤0.25, semi-active 0.25<IC75≤0.50, inactive IC75>0.5
Description: as §1

[9] = system: human and sheep erythrocytes
Description: The haemolytic activity of peptides was determined by measuring haemoglobin leakage from human and sheep erythrocytes (Divbioscience, NL) after 1 h incubation at OD450nm. Cetyltrimethylammonium bromide (CTAB), a non-specific detergent was also included as a positive control. Triton-X 100 (0.1% v/v) was also used as an indicator of 100% haemolysis while PBS treatment represented auto-haemolysis.

[10] = Peptide-lipid interaction, lipid monolayer (Langmuir balance); assay type: binding, Staphylococcus aureus; conditions: initial surface pressure 30 ± 0.5 mN/m; compared to Lynronne-2
Description: Membrane permeabilsation was evaluated using propidium iodide assay as previously explained,[43] with CTAB as positive control. Peptide–lipid interaction was measured using reconstituted lipid monolayer.[44] Total lipid extract from overnight liquid cultures of MRSA USA300 was obtained by Folch extraction, resuspended in chloroform and stored at −20 °C under nitrogen conditions. Pure bacterial and eukaryotic lipids, POPG, cardiolipin, LTA, POPE and POPC (Avanti Polar Lipid USA) were reconstituted in chloroform at 1 mg/ml and stored at −20 °C under nitrogen. […] The variation of the surface pressure caused by peptide injection was then continuously monitored using a fully automated microtensiometer (µTROUGH SX, Kibron Inc., Helsinki, Finland) until reaching equilibrium (maximal surface pressure increase usually obtained after 15–25 min). Critical pressure of insertion of each peptide in the different lipids was also determined by changing the initial pressure of lipid monolayer (from 10 and 30 mN/m) and measuring the variation of pressure caused by the injection of peptide (at 1 µg/ml final concentration). All experiments were carried out in a controlled atmosphere at 20 °C ± 1 °C and data were analyzed using the Filmware 2.5 program (Kibron Inc., Helsinki, Finland). […]

[11] = system: A. baumanii; experiment: microbe, parasite or virus in culture
Description: as §2

[12] = system: K. pneumoniae; experiment: microbe, parasite or virus in culture; conditions: cation adjusted MHB, 18–24 h
Description: as §2

HLRRINKLLTRIGLYRHAFG-NH2 [Lynronne-2]
remaining at 2 h [1]: ≥ 60%
remaining at 6 h [1]: 42%
IC75 values indicating activity classes, E. coli [2]: 0.09
Reduction in viable count ([3]; in 30 min): > 3 log10 CFU/ml
MIC [4]: 32 µg/mL
MIC [5]: 32 µg/mL
MIC [6]: 32 µg/mL
MIC [7]: 32 µg/mL
IC75 values indicating activity classes, P. aeruginosa H1001 [8]: 0.14
Haemolytic activity against red blood cells [9]: little haemolytic activity

LPRRNRWSKIWKKVVTVFS-NH2 [Lynronne-1]
remaining at 2 h [1]: 48%
remaining at 6 h [1]: 15%
IC75 values indicating activity classes, E. coli [2]: 0.06
Insertion ability into MRSA lipid extract monolayer [10]: higher insertion ability
Reduction in viable count ([3]; within the first 10 min): > 8 log10 CFU/ml
MIC [11]: 4 µg/mL
MIC ([12]; strain ATCC 700603, SHV-18): 16 µg/mL
MIC ([12]; strain NCTC 13442, OXA-48): 16 µg/mL
MIC range for methicillin-resistant S. aureus (MRSA) strains [4]: 8 to 32 µg/mL
MIC [4]: 32 µg/mL
MIC [5]: 32 µg/mL
MIC [6]: 32 µg/mL
MIC [7]: 32 µg/mL
IC75 values indicating activity classes, P. aeruginosa H1001 [8]: 0.14
Haemolytic activity against red blood cells [9]: little haemolytic activity

NRFTARFRRTPWRLCLQFRQ-NH2 [Lynronne-3]
remaining at 2 h [1]: ≥ 88%
remaining at 6 h [1]: 34%
IC75 values indicating activity classes, E. coli [2]: 0.16
Insertion ability into MRSA lipid extract monolayer [10]: higher insertion ability
Reduction in viable count ([3]; within the first 10 min): > 8 log10 CFU/ml
MIC ([11]; strain 1560739339, OXA-23, cation adjusted MHB, 18–24 h): 32 µg/mL
MIC ([12]; strain ATCC 700603, SHV-18): 32 µg/mL
MIC ([12]; strain NCTC 13442, OXA-48): 32 µg/mL
MIC ([12]; strain Q14-0095, KPC): 32 µg/mL
MIC range for methicillin-resistant S. aureus (MRSA) strains [4]: 32 to 128 µg/mL
MIC [4]: 32 µg/mL
MIC [5]: 64 µg/mL
MIC [6]: 64 µg/mL
MIC [7]: 32 µg/mL
IC75 values indicating activity classes, P. aeruginosa H1001 [8]: 0.54
Haemolytic activity against red blood cells [9]: little haemolytic activity

Reference: PMC5711939, “The rumen microbiome: an underexplored resource for novel antimicrobial discovery” (NPJ Biofilms and Microbiomes, 2017)
